According to US20040138239A1, “Compositions and methods for targeting cerebral circulation and treatment of headache” (priority 2004, published 2004):

Key:
fever = settings: oral delivery; cited from earlier work
headache = experiment: Inventors' observation: topical NSAID formulations in treatment of a headache; type: in vivo, human; settings: applied to tender spot or area superficial to carotid, temporal and/or vertebral artery
From the text: Especially preferred compositions include a xanthine derivative in a concentration of about 4% (wt) to 70% (wt) and ketoprofen in a concentration of about 0.5% (wt) to 50% (wt). With respect to the xanthine derivative, the same considerations as described above apply. Furthermore, such particularly preferred compositions may be formulated in a lecithin-containing formulation or a pluronic-lecithin-organogel formulation (supra). It should be especially recognized, that compositions including a xanthine derivative or an NSAID have generally been described in the art. However, the inventors observed that formulations including an NSAID other than Ketoprofen generally fail to provide relief in treatment of a headache, when topically applied to a person (either to a tender spot, or to an area superficial to a carotid artery, a temporal artery and/or a vertebral artery). It is therefore a surprising result that Ketoprofen is the only NSAID effective in treatment of a headache when used in protocols according to the inventive subject matter (see also examples). While not wishing to be bound by a particular hypothesis or theory, the inventors contemplate that the effect of Ketoprofen may be at least in part mediated by a muscle-relaxant effect rather than via a suppressive effect in inflammation.

Compound | time to achieve sufficient plasma concentration to lower the fever (fever) | relief in treatment of a headache when topically applied (headache)
CC(=O)Nc1ccc(O)cc1 [Acetaminophen] | at least 20 minutes | 
CC(C(=O)O)c1cccc(C(=O)c2ccccc2)c1 (centres unmarked) [Ketoprofen, 2-(meta-benzoylphenyl)pro-pionic acid] |  | effective
